The record followed here is PubChem BioAssay AID248 (DTP/NCI, 2004).

The structures appear in SMILES notation. “And” between values parts separate entries of the source, which are not always exact repeats. Equal values may be shown once. Inconclusive results and toxic doses are left out.

This experiment deals with L1210 leukemia ip in BDF1 mice, survival T/C. In words: NCI In Vivo Anticancer Drug Screen. Data for tumor model L1210 Leukemia (intraperitoneal) in B6D2F1 (BDF1) mice. As to conditions: endpoint: mean survival time, higher = longer survival. A digest of the protocol:
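Tumor cells were implanted, animals were treated, and survival was followed. The result divides the treated measurement by the vehicle-control measurement.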

Setting [1] is: dose: 100.0 mg/kg/injection, schedule: Q01DX009 (ip), vehicle: Klucel (hydroxypropylcellulose) (HPC).
Setting [2] is: dose: 400.0 mg/kg/injection, schedule: Q01DX009 (ip), vehicle: Klucel (hydroxypropylcellulose) (HPC).

For `COC(C(=O)C(O)C(C)O)C1CC2C=C3C=C(OC4CC(OC5CC(O)C(OC)C(C)O5)C(OC(C)=O)C(C)O4)C(C)C(=O)C3=C(O)C2=C(O)C1OC1CC(OC2CC(OC3CC(C)(O)C(OC(=O)C(C)C)C(C)O3)C(O)C(C)O2)C(O)C(C)O1` (centres undefined), the T/C (dose: 0.25 mg/kg/injection, schedule: Q01DX001 (ip), vehicle: other) was 121 % of control; the T/C (dose: 0.5 mg/kg/injection, schedule: Q01DX001 (ip), vehicle: other) is 113 % of control; the T/C (dose: 1.0 micrograms/kg/injection, schedule: Q01DX009 (ip), vehicle: other) was 111 % of control; the T/C (dose: 1.0 micrograms/kg/injection, schedule: Q01DX009 (ip), vehicle: saline) was 111 % of control; the T/C (dose: 2.0 micrograms/kg/injection, schedule: Q01DX009 (ip), vehicle: other) is 105 % of control; the T/C (dose: 2.0 micrograms/kg/injection, schedule: Q01DX009 (ip), vehicle: saline) was 117 % of control. Besides, the T/C was 109 % of control (dose: 4.0 micrograms/kg/injection, schedule: Q01DX009 (ip), vehicle: other); 117 % of control (dose: 4.0 micrograms/kg/injection, schedule: Q01DX009 (ip), vehicle: saline); 114 % of control (dose: 5.0 micrograms/kg/injection, schedule: Q01DX001 (ip), vehicle: saline); 121 % of control (dose: 8.0 micrograms/kg/injection, schedule: Q01DX009 (ip), vehicle: other); 123 % of control (dose: 10.0 micrograms/kg/injection, schedule: Q01DX001 (ip), vehicle: saline); 118 % of control (dose: 16.0 micrograms/kg/injection, schedule: Q01DX009 (ip), vehicle: other). In addition, the T/C was 117 % of control (dose: 16.0 micrograms/kg/injection, schedule: Q01DX009 (ip), vehicle: saline); 114 % of control (dose: 20.0 micrograms/kg/injection, schedule: Q01DX001 (ip), vehicle: saline); 112 % of control (dose: 32.0 micrograms/kg/injection, schedule: Q01DX009 (ip), vehicle: saline); 110 % of control (dose: 37.0 micrograms/kg/injection, schedule: Q01DX009 (ip), vehicle: other); 120 % of control (dose: 40.0 micrograms/kg/injection, schedule: Q01DX001 (ip), vehicle: saline); 107 % of control (dose: 62.5 micrograms/kg/injection, schedule: Q04DX003 (ip), vehicle: saline). Also, the T/C reads like this: (dose: 80.0 micrograms/kg/injection, schedule: Q01DX001 (ip), vehicle: saline) 103 % of control; (dose: 125.0 micrograms/kg/injection, schedule: Q01DX001 (ip), vehicle: saline) 151 % of control and 331 % of control; (dose: 125.0 micrograms/kg/injection, schedule: Q04DX003 (ip), vehicle: saline) 104 % of control; (dose: 125.0 micrograms/kg/injection, schedule: Q08DX002 (ip), vehicle: saline) 163 % of control; (dose: 250.0 micrograms/kg/injection, schedule: Q01DX001 (ip), vehicle: saline) 116 % of control and 198 % of control and 283 % of control.

Regarding `Nc1ncnc(N)c1NC(=O)c1ccc(SCc2ccccc2)cc1`, the T/C reads like this: under setting [1], 93 % of control; under setting [2], 88 % of control.

Regarding `COc1ccccc1NC(=O)NCc1cc(C)ccc1C`, the T/C under setting [1] is 93 % of control; the T/C (dose: 200.0 mg/kg/injection, schedule: Q01DX009 (ip), vehicle: Klucel (hydroxypropylcellulose) (HPC)) was 88 % of control; the T/C under setting [2] is 93 % of control.

With `CN1CCC(CCOCc2ccccc2)(CN2c3ccccc3Sc3ccccc32)C1` (centres undefined), the T/C by setting is: (dose: 6.25 mg/kg/injection, schedule: Q01DX009 (ip), vehicle: saline with Tween-80) 93 % of control; (dose: 12.5 mg/kg/injection, schedule: Q01DX009 (ip), vehicle: saline with Tween-80) 98 % of control; (dose: 25.0 mg/kg/injection, schedule: Q01DX009 (ip), vehicle: saline with Tween-80) 93 % of control.

As to `CCCCCc1ccc(C(C)=O)cc1`, the T/C is, setting by setting: (dose: 100.0 mg/kg/injection, schedule: Q04DX003 (ip), vehicle: saline) 100 % of control; (dose: 200.0 mg/kg/injection, schedule: Q04DX003 (ip), vehicle: saline) 114 % of control; (dose: 400.0 mg/kg/injection, schedule: Q04DX003 (ip), vehicle: saline) 114 % of control.

`CC(=O)[C@H]1CC[C@H]2[C@@H]3C[C@H](C)C4=CC(=O)CC[C@]4(C)[C@H]3C(=O)C[C@]12C`: the T/C reads like this: (dose: 20.0 mg/kg/injection, schedule: Q01DX009 (ip), vehicle: carboxymethylcellulose (CMC)) 93 % of control; (dose: 25.0 mg/kg/injection, schedule: Q01DX015 (sc), vehicle: steriod suspending solution) 104 % of control; (dose: 32.0 mg/kg/injection, schedule: Q03HX008 (ip), vehicle: Klucel (hydroxypropylcellulose) (HPC)) 93 % of control; (dose: 32.0 mg/kg/injection, schedule: Q03HX016 (ip), vehicle: Klucel (hydroxypropylcellulose) (HPC)) 92 % of control; (dose: 32.0 mg/kg/injection, schedule: Q03HX024 (ip), vehicle: Klucel (hydroxypropylcellulose) (HPC)) 97 % of control; (dose: 40.0 mg/kg/injection, schedule: Q01DX009 (ip), vehicle: carboxymethylcellulose (CMC)) 96 % of control. Besides, the T/C runs as follows: (dose: 50.0 mg/kg/injection, schedule: Q01DX015 (sc), vehicle: steriod suspending solution) 96 % of control; (dose: 64.0 mg/kg/injection, schedule: Q03HX008 (ip), vehicle: Klucel (hydroxypropylcellulose) (HPC)) 92 % of control; (dose: 64.0 mg/kg/injection, schedule: Q03HX016 (ip), vehicle: Klucel (hydroxypropylcellulose) (HPC)) 94 % of control; (dose: 64.0 mg/kg/injection, schedule: Q03HX024 (ip), vehicle: Klucel (hydroxypropylcellulose) (HPC)) 93 % of control; (dose: 67.0 mg/kg/injection, schedule: Q01DX Z (sc), vehicle: steriod suspending solution) 103 % of control; (dose: 80.0 mg/kg/injection, schedule: Q01DX Z (sc), vehicle: steriod suspending solution) 106 % of control. For the same molecule, the T/C is, setting by setting: (dose: 100.0 mg/kg/injection, schedule: Q01DX015 (sc), vehicle: steriod suspending solution) 98 % of control; (dose: 100.0 mg/kg/injection, schedule: Q01DX Z (sc), vehicle: steriod suspending solution) 109 % of control; (dose: 120.0 mg/kg/injection, schedule: Q01DX Z (sc), vehicle: steriod suspending solution) 101 % of control; (dose: 123.0 mg/kg/injection, schedule: Q01DX009 (ip), vehicle: Klucel (hydroxypropylcellulose) (HPC)) 100 % of control; (dose: 123.0 mg/kg/injection, schedule: Q03HX008 (ip), vehicle: Klucel (hydroxypropylcellulose) (HPC)) 95 % of control; (dose: 123.0 mg/kg/injection, schedule: Q03HX016 (ip), vehicle: Klucel (hydroxypropylcellulose) (HPC)) 93 % of control. The T/C is 98 % of control (dose: 123.0 mg/kg/injection, schedule: Q03HX024 (ip), vehicle: Klucel (hydroxypropylcellulose) (HPC)); 106 % of control (dose: 150.0 mg/kg/injection, schedule: Q01DX Z (sc), vehicle: steriod suspending solution); 93 % of control (dose: 160.0 mg/kg/injection, schedule: Q01DX009 (ip), vehicle: carboxymethylcellulose (CMC)); 97 % of control (dose: 180.0 mg/kg/injection, schedule: Q01DX Z (sc), vehicle: steriod suspending solution); 102 % of control and 104 % of control (dose: 200.0 mg/kg/injection, schedule: Q01DX015 (sc), vehicle: steriod suspending solution); 97 % of control (dose: 220.0 mg/kg/injection, schedule: Q01DX Z (sc), vehicle: steriod suspending solution). In addition, the T/C is 96 % of control (dose: 255.0 mg/kg/injection, schedule: Q01DX001 (ip), vehicle: Klucel (hydroxypropylcellulose) (HPC)); 103 % of control (dose: 255.0 mg/kg/injection, schedule: Q01DX009 (ip), vehicle: Klucel (hydroxypropylcellulose) (HPC)); 97 % of control (dose: 255.0 mg/kg/injection, schedule: Q04DX003 (ip), vehicle: Klucel (hydroxypropylcellulose) (HPC)); 104 % of control (dose: 255.0 mg/kg/injection, schedule: Q08DX002 (ip), vehicle: Klucel (hydroxypropylcellulose) (HPC)); 89 % of control (dose: 270.0 mg/kg/injection, schedule: Q01DX Z (sc), vehicle: steriod suspending solution); 87 % of control (dose: 320.0 mg/kg/injection, schedule: Q01DX009 (ip), vehicle: carboxymethylcellulose (CMC)). For the same molecule, the T/C is 100 % of control (dose: 330.0 mg/kg/injection, schedule: Q01DX Z (sc), vehicle: steriod suspending solution); 102 % of control (dose: 400.0 mg/kg/injection, schedule: Q01DX015 (sc), vehicle: steriod suspending solution); 94 % of control (dose: 495.0 mg/kg/injection, schedule: Q01DX Z (sc), vehicle: steriod suspending solution); 103 % of control (dose: 512.0 mg/kg/injection, schedule: Q08DX002 (ip), vehicle: Klucel (hydroxypropylcellulose) (HPC)); 92 % of control (dose: 640.0 mg/kg/injection, schedule: Q01DX009 (ip), vehicle: carboxymethylcellulose (CMC)).
